Reference: patent US20200368198A1, “METHODS FOR INCREASING FERTILITY” (NEWSOUTH INNOVATIONS PTY LIMITED, priority 2017, published 2020)
Values joined by “and” are separate entries in the source; they are usually repeats but may differ in a detail not shown here. Equal entries are not always repeated.

How the values were obtained:
Type in all cases: in vivo
C57BL6 female mice [1] = assay: Cumulus oocyte complex yield after PMSG superovulation, doxorubicin with or without NMN; details: per mouse, single dose doxorubicin 10 mg/kg i.p. and/or NMN 2 g/L drinking water, 2 months post doxorubicin
Experimental: To assess oocyte yield, and mice were hormonally stimulated to superovulated by intraperitoneal injection with 7.5 IU/mL of Pregnant Mare's Serum Gonadotropin (PMSG) (Folligon; Intervet, Boxmeer, Holland) to stimulate follicular growth. After 44-46 hours, ovaries were collected in HEPES-buffered minimum essential medium (aMEM; […] Sigma Aldrich, St. Louis, Mo.) and 100 μM IBMX (Sigma Aldrich). […] NMN was delivered through addition to drinking water at 2 g/L, for a final dose of approximately 165 mg/kg. Administration of NMN began one day prior to doxorubicin administration. […] Ovaries were then punctured to release MI oocytes. In a separate cohort of animals, the same experiment was repeated using animals treated with the platinum based chemotherapy drug cisplatin. In FIG. 6 and Table 1, numbers of cumulus oocyte complexes are listed.

C57BL6 mice = assay: Breeding trial with NMN in drinking water; details: NMN 2 g/L drinking water
Source text: FIG. 4. A) is a graph showing litter size. C57BL6 mice were maintained on normal drinking water supplemented with or without NMN (2 g/L) from 2 months of age. From 4 months of age, animals were timed mated with proven stud male C57BL6. Pregnancy was confirmed using micro-ultrasound for the presence of a foetal heartbeat, and the number of pups born in subsequent litters recorded. B) is a graph showing body weights of pups from breeding trials at 12 days of age.
To determine whether NMN treatment could improve overall, functional fertility, we conducted a breeding trial in C57BL6 mice. Both pregnancy success rates and litter size (FIG. 4A) were improved in animals that received NMN, further confirming the importance of this mechanism to female fertility. Offspring from females that received NMN treatment developed at a similar rate to offspring from untreated females, even after challenging with high fat feeding (FIG. 5A and 5B).

oocytes = assay: Spindle structure staining of oocytes from aged NMN treated mice
Source text: To determine the impact of NMN on spindle assembly, oocytes from C57BL6 mice were next stained for spindle structure (FIG. 3F).
As with other sirtuins, SIRT2 is critically dependent for its activity on levels of its enzymatic co-factor NAD^+, which naturally declines with old age. We hypothesized that increasing NAD^+ availability during old age could restore SIRT2 activity, and recapitulate the improvements in fertility observed with old age during SIRT2 over-expression. To test this, non-genetically modified C57BL6 female mice were treated with the NAD^+ precursor nicotinamide mononucleotide (NMN), as in the Examples above. Mice were treated at 15 months of age, when mice normally experience ovarian failure (FIG. 34). Three weeks later, oocytes were harvested, and analysed for spindle structure (FIG. 35).

C57BL6 female mice [2] = assay: Cumulus oocyte complex yield after PMSG, cisplatin with or without NMN; details: per mouse, single dose cisplatin 5 mg/kg i.p. and/or NMN 2 g/L drinking water, two months later
Experimental: To assess oocyte yield, and mice were hormonally stimulated to superovulated by intraperitoneal injection with 7.5 IU/mL of Pregnant Mare's Serum Gonadotropin (PMSG) (Folligon; Intervet, Boxmeer, Holland) to stimulate follicular growth. After 44-46 hours, ovaries were collected in HEPES-buffered minimum essential medium (aMEM; Gibco Life Technologies, Grand Island, N.Y.) supplemented with 50 µM of 3-isobuty-1-methylxanthine (IBMX) (Sigma aldrich, NSW, AU) (M2 medium) to maintain meitotic arrest at germinal vesicle stage. Cumulus oocyte complexes (COCs) were isolated from preovulatory follicles using a 27-gauge needle and collected using flame-pulled borosilicate Pasteur pipettes in M2 medium supplemented with 3 mg/ml bovine serum albumin (BSA; Sigma Aldrich, St. Louis, Mo.) and 100 μM IBMX (Sigma Aldrich). Cumulus oocyte complexes (COCs) were mechanically denuded of cumulus cells by pipetting, and the denuded oocytes were transferred to another dish containing a drop of fresh M2-medium plus IBMX on heat block with 37° C. with lid to protect oocytes from light. […]

oocytes / blastocysts = assay: IVF of oocytes from 8 month old NMN treated mice: blastocyst formation and inner cell mass
Experimental: In addition, the length of treatment with NAD raising compounds (e.g. NMN) positively correlates with improved fertility. Eight month old ex-breeder C57BL6 female mice, which are at an age of declining natural fertility, were treated with NMN through addition to drinking water (2 g/L) for 48 hours, 1 week, 2 weeks, and 4 weeks (6 per group). Animals were then treated with PMSG and then hCG to promote oocyte maturation and ovulation. MII stage oocytes were collected from the oviduct, and fertilized in vitro. Oocytes were then cultured into blastocysts for the next 6 days, at which point these blastocysts were subjected to differential staining to assess blastocyst cell number in either the inner cell mass or the trophectoderm. Inner cell mass cell number is accepted as an important predictor of implantation success rates.
This was measured through performing IVF in oocytes obtained from 8 month old C57BL6 ex-breeder female mice, which were assigned to the following 4 groups (6 per group) . . . • Daily oral gavage, saline control, normal drinking water • Daily oral gavage, 10 mg NMN in saline, normal drinking water • No gavage, normal (control) drinking water • No gavage, NMN in drinking water (2 g/L)
These animals were at an age at which fertility normally declines in this species. Animals were maintained on each of the above treatments for 10 days. Animals were then treated with PMSG and then hCG to promote oocyte maturation and ovulation. MII stage oocytes were collected from the oviduct, and fertilized in vitro. Oocytes were then cultured into blastocysts for the next 6 days, and blastocyst formation rates were assessed. Results at days 5 and six are shown in FIGS. 38 and 39, respectively. Blastocyst formation and hatching were assessed as indicators of developmental competence. Blastocyst formation is a clinically relevant outcome: during clinical IVF, blastocyst stage and hatching blastocyst stage embryos are preferentially transferred over earlier stage embryos into a person wishing to obtain a pregnancy.

SMILES: NC(=O)c1ccc[n+]([C@@H]2O[C@H](COP(=O)([O-])O)[C@@H](O)[C@H]2O)c1 [NMN, nicotinamide mononucleotide]
- Numbers of cumulus oocyte complexes released from mice (C57BL6 female mice [1]): able to protect against doxorubicin induced oocyte loss and 33 and 17 and 15 and 10 and 18 and 13
- Litter size (C57BL6 mice): improved
- Pregnancy success rates (C57BL6 mice): improved
- Spindle structure in oocytes (oocytes; 15 month old C57BL6 females, NMN 3 weeks): reverse severe spindle defects
- Spindle and chromosome arrangement in oocytes (oocytes; aged C57BL6 females, NMN 2 g/L drinking water, 4 weeks): bi-polar, barrel-shaped arrangement with well-aligned chromosomes
- Numbers of cumulus oocyte complexes released from mice (C57BL6 female mice [2]): completely rescued and 16 and 14 and 17 and 12 and 13 and 11
- Efficacy on blastocyst formation after IVF: drinking water versus single daily oral gavage (oocytes / blastocysts; 8 month old C57BL6, NMN 2 g/L drinking water versus 10 mg daily gavage, 10 days): better efficacy
- Efficacy versus length of NMN administration (inner cell mass cell number of blastocysts) (oocytes / blastocysts; NMN 2 g/L drinking water for 48 hours, 1, 2, 4 weeks): time dependent increase in efficacy
- Ability of oocytes to form blastocysts following fertilisation in vitro (oocytes / blastocysts; oocytes from NMN treated versus untreated mice): enhanced ability to form blastocysts
